# Source: patent US20260365990A1, “METHOD FOR THE PRESERVATION OF FUNCTIONAL GAMETES” (Julius-Maximilians-Universität Würzburg, in Vertretung des …, priority 2022, published 2026)
# “Also recorded” adds a separate entry of the source.
# Assays:
# spermatozoa [1] = assay: Computer assisted sperm analysis (CASA, CEROS II) of human spermatozoa treated with CO vs. without CO: total motility, progressive motility, average path velocity (VAP); assay type: cell-based; details: for Change in progressive motility (ratio treated/untreated) / Change of VAP (ratio treated/untreated) / Change in motility (ratio treated/untreated) / Change in velocity of the sperm cells (VAP, ratio treated/untreated): mean±SD
# Protocol: (§1) Between 1.46 mL and 5.7 mL human semen/spermatozoa were collected from healthy males of between 25 and 50 years of age in 100 mL sample vials on site. Samples were then divided into two equal fractions each for subsequent incubation with CO (wCO) and without CO (woCO). In order to estimate the spermatozoa concentration in the samples and to establish an initial baseline for each sample, a routine spermiogram was performed before samples were transferred to gas-tight 15 mL Falcon tubes. Samples were incubated at 25-35 °C for 90 minutes with and without an activated CORS system in a closed container. During this incubation period liquefaction took place naturally. The samples were then analyzed for total motility, progressive motility, static oxidation-reduction potential, and for DNA fragmentation. Total motility, progressive motility and concentration of the samples were assessed using a CEROS II (Hamilton Thorne, Beverly, MA) computer assisted sperm analysis (CASA) system. 6 μL of a sperm sample diluted 1:1 with Multipurpose Handling Medium-Complete (MHM-C, FujiFilm/IrvineScientific, Santa Ana, CA) was measured and the concentration and level of mobility (total and progressive motility) was assessed.
# (§2) In this example, sperm samples were treated with either one, three, or six CORS capsules, each loaded with 5 mg Mo-CORM (corresponds to 0.44 mL CO) for 60 to 270 mins, or left untreated for the same amount of time.
# (§3) Human sperm was collected from healthy volunteers in 100 ml specimen containers. Afterwards, the ejaculate was split into equal parts and filled into 15 mL gas tight falcon tubes, with one of the samples being exposed to one or more activated CORS. Then, both samples were analyzed for motility parameters via computer assisted sperm analysis (CASA), the static oxidation-reduction potential (sORP) via MiOXSYS and sperm DNA-fragmentation (SDF) via dispersion test with Halosperm G2 Kit after a predetermined time.
# Total motility, progressive motility, VAP, and concentration of the samples were tested using a CEROS II (Hamilton Thorne, Beverly, MA) computer assisted sperm analysis (CASA) system. 6 μL of a sperm sample diluted 1:1 with Multipurpose Handling Medium-Complete (MHM-C, Fuji Film/Irvine Scientific, Santa Ana, CA) was investigated with the CASA system, and the level of mobility was assessed.
# spermatozoa [2] = assay: Sperm DNA fragmentation (SDF) by dispersion test, Halosperm G2 Kit; assay type: cell-based, human; details: for DNA-fragmentation change (SDF, ratio treated/untreated): mean±SD
# Protocol: as §1
# To determine DNA fragmentation a count-based microscopy assay was performed. For this spermatozoa samples were diluted using MHM-C (Multipurpose Handling Medium-Complete, FujiFilm, IrvineScientific) to a maximum of 20×E6 spermatozoa per mL and analyzed using a Halo Sperm G2 Kit (Halotech, Madrid, Spain). Samples were mixed with the prepared agarose according to manufacturer instructions. 8 μL of the resulting mixture was then put on microscopy slides and cooled down for 5 minutes by removing the heat source. The prepared samples were further treated according to the manufacturer's instructions: denaturant for 7 minutes, lysis solution for 20 minutes, distilled water for 5 minutes, 70% ethanol for 2 minutes, 100% ethanol for 2 minutes, eosin staining solution for 7-10 minutes, and thiazine staining solution for 7-10 minutes. At least 300 spermatozoa were then analyzed using a bright field microscope.
# as §2, §3
# Sperm DNA fragmentation (SDF) was assessed via dispersion test using a Halosperm G2 Kit (From Halotech, Madrid, Spain) following manufacturer's specifications. In brief, the samples were diluted to a maximum of 20 mio/mL. The samples were, then, mixed with the prepared agarose. 8 μL of the mixture was transferred on slides and cooled down for 5 minutes. Different reagents were added and discarded after the set time: Denaturant agent was added for 7 minutes, lysis solution for 20 minutes, distilled water for 5 minutes, 70% ethanol for 2 minutes, 100% ethanol for 2 minutes, eosin staining solution for 7-10 minutes, and thiazine staining solution for 7-10 minutes. A minimum of 400 sperms were analyzed using an Olympus IX73 Inverted LED Fluorescence Microscope.
# spermatozoa [3] = assay: Static oxidation-reduction potential (sORP) of human sperm samples by MiOXSYS; assay type: cell-based; details: for Change in oxidation-reduction potential (sORP, ratio treated/untreated): mean±SD; for Oxidation-reduction potential, samples 42_1 and 38_7 (in words): samples with drastically elevated untreated values, FIGS. 7D and 8D
# Protocol: as §1
# A Male Infertility Oxidative System (MiOXSYS, Englewood, CO) was used to determine static oxidation-reduction potential (sORP) levels. 30 μL of the sperm samples were transferred to the sample application port on a MiOXSYS sensor and analyzed for 2 minutes.
# as §2, §3
# An oxidative male infertility measuring System (MiOXSYS, Englewood, CO) was used to determine static oxidation-reduction potential (SORP) levels following manufacturer's specifications. 30 μL of sample were transferred to the sample application port onto a MiOXSYS sensor and analyzed for 2 minutes. The results were expressed in milli Volt (mV) and normalized to the seminal sperm concentration (mV/106 sperm/mL).
# [4] = 0.44 mL CO (5 mg Mo-CORM), 90 min
# [5] = 1.32 mL CO (15 mg Mo-CORM), 60 min
# [6] = 1.32 mL CO (15 mg Mo-CORM), 90 min
# [7] = 1.32 mL CO (15 mg Mo-CORM), 180 min
# [8] = 1.32 mL CO (15 mg Mo-CORM), 270 min
# [9] = 2.64 mL CO (30 mg Mo-CORM), 90 min
# [10] = Example 3, up to 90 min, 0.44-2.64 mL CO
# [11] = Example 3, 60 min and 90 min, 0.44 mL and 1.32 mL CO
smiles,measurement,setting,value
"[C-]#[O+] [CO, carbon monoxide]",Change in progressive motility (ratio treated/untreated),spermatozoa [1]; [4],0.97±0.12 fold
same,Change of VAP (ratio treated/untreated),spermatozoa [1]; [4],1.01±0.08 fold
same,Change in motility (ratio treated/untreated),"spermatozoa [1]; 0.44 mL CO (5 mg Mo-CORM, one CORS), 90 min",0.98±0.12 fold
same,Change in progressive motility (ratio treated/untreated),spermatozoa [1]; [5],0.85±0.13 fold
same,"Change in velocity of the sperm cells (VAP, ratio treated/untreated)",spermatozoa [1]; [5],0.94±0.09 fold
same,Change in motility (ratio treated/untreated),spermatozoa [1]; [6],0.99±0.03 fold
same,Change in progressive motility (ratio treated/untreated),spermatozoa [1]; [6],0.92±0.17 fold
same,"Change in velocity of the sperm cells (VAP, ratio treated/untreated)",spermatozoa [1]; [6],0.96±0.04 fold
same,Change in motility (ratio treated/untreated),spermatozoa [1]; [7],1.16±0.37 fold
same,Change in progressive motility (ratio treated/untreated),spermatozoa [1]; [7],0.72±0.19 fold
same,"Change in velocity of the sperm cells (VAP, ratio treated/untreated)",spermatozoa [1]; [7],0.79±0.13 fold
same,Change in motility (ratio treated/untreated),spermatozoa [1]; [8],0.94±0.20 fold
same,Change in progressive motility (ratio treated/untreated),spermatozoa [1]; [8],1.04±0.48 fold
same,"Change in velocity of the sperm cells (VAP, ratio treated/untreated)",spermatozoa [1]; [8],0.97±0.08 fold
same,Change in motility (ratio treated/untreated),"spermatozoa [1]; 1.32 mL CO (15 mg Mo-CORM, three CORS), 60 min",1.13±0.41 fold
same,Change in progressive motility (ratio treated/untreated),spermatozoa [1]; [9],0.88±0.10 fold
same,Change of VAP (ratio treated/untreated),spermatozoa [1]; [9],1.03±0.03 fold
same,Change in motility (ratio treated/untreated),"spermatozoa [1]; 2.64 mL CO (30 mg Mo-CORM, six CORS), 90 min",0.90±0.12 fold
same,Relative total motility wCO/woCO (in words),"spermatozoa [1]; Example 2, 15 mg Mo-CORM, 90 min, 25-35 °C, 5 subjects, FIG. 4A",no differences between samples that were contacted with CO (wCO) and without CO (woCO)
same,Relative progressive motility wCO/woCO (in words),"spermatozoa [1]; Example 2, 15 mg Mo-CORM, 90 min, 25-35 °C, 5 subjects, FIG. 4B, exception subject 6",progressive motility is increased for wCO as compared to woCO; also recorded: an improvement of progressive motility
same,Effect on spermatozoan motility (in words),"spermatozoa [1]; Example 3, 60 min or 90 min, 0.44 mL or 1.32 mL CO",no negative effects on spermatozoan motility
same,Effect on progressive motility vs untreated (in words),spermatozoa [1]; [10],"did not impair sperm motility, progressive motility"
same,Effect on sperm motility vs untreated (in words),spermatozoa [1]; [10],did not impair sperm motility
same,Effect on velocity vs untreated (in words),spermatozoa [1]; [10],"did not impair sperm motility, progressive motility, and velocity"
same,"DNA-fragmentation change (SDF, ratio treated/untreated)",spermatozoa [2]; [4],0.83±0.09 fold
same,"DNA-fragmentation change (SDF, ratio treated/untreated)",spermatozoa [2]; [5],0.77±0.07 fold
same,"DNA-fragmentation change (SDF, ratio treated/untreated)",spermatozoa [2]; [6],0.67±0.24 fold
same,"DNA-fragmentation change (SDF, ratio treated/untreated)",spermatozoa [2]; [7],0.90±0.11 fold
same,"DNA-fragmentation change (SDF, ratio treated/untreated)",spermatozoa [2]; [8],0.90±0.19 fold
same,"DNA-fragmentation change (SDF, ratio treated/untreated)",spermatozoa [2]; [9],1.31±0.55 fold
same,Correlation of CO effect on SDF with untreated SDF (in words),"spermatozoa [2]; 60 min and 90 min, 15 mg CORM, FIG. 10",particularly effective in subjects that suffer from high sperm oxidation-reduction potential and/or DNA-fragmentation
same,Relative DNA fragmentation wCO/woCO (in words),"spermatozoa [2]; Example 2, 15 mg Mo-CORM, 90 min, 25-35 °C, 3 subjects, FIG. 3",DNA fragmentation is reduced in samples that were contacted with CO; also recorded: a reduction in DNA fragmentation
same,"DNA fragmentation, subjects 3 and 4 (in words)","spermatozoa [2]; Example 2, FIG. 3, treated vs untreated aliquots of same donor",less DNA fragmentation
same,Spermatozoan DNA-fragmentation (SDF) vs untreated (in words),spermatozoa [2]; [11],reduced
same,"DNA fragmentation, samples 42_1 and 38_7 (in words)","spermatozoa [2]; samples with drastically elevated untreated values, FIGS. 7E and 8E",strong reduction
same,"Change in oxidation-reduction potential (sORP, ratio treated/untreated)",spermatozoa [3]; [4],0.89±0.17 fold
same,"Change in oxidation-reduction potential (sORP, ratio treated/untreated)",spermatozoa [3]; [5],0.57±0.35 fold
same,"Change in oxidation-reduction potential (sORP, ratio treated/untreated)",spermatozoa [3]; [6],0.91±0.12 fold
same,"Change in oxidation-reduction potential (sORP, ratio treated/untreated)",spermatozoa [3]; [7],1.02±0.32 fold
same,"Change in oxidation-reduction potential (sORP, ratio treated/untreated)",spermatozoa [3]; [8],1.13±0.28 fold
same,"Change in oxidation-reduction potential (sORP, ratio treated/untreated)",spermatozoa [3]; [9],0.59±0.24 fold
same,Correlation of CO effect on sORP with untreated sORP (in words),"spermatozoa [3]; 60 min and 90 min, 15 mg CORM, FIG. 9",particularly effective in subjects that suffer from high sperm oxidation-reduction potential
same,Relative oxidation-reduction potential wCO/woCO (in words),"spermatozoa [3]; Example 2, 15 mg Mo-CORM, 90 min, 25-35 °C, 6 subjects, FIG. 2",show a trend to be lower in the samples that were contacted with CO; also recorded: a reduction in oxidative stress/ROS
same,Oxidation-reduction potential vs untreated (in words),spermatozoa [3]; [11],reduced
same,"Oxidation-reduction potential, samples 42_1 and 38_7 (in words)",spermatozoa [3],strong reduction
same,"Oxidation-reduction potential, samples 42_1 and 38_7 (in words)",spermatozoa [3]; listed as carbon monoxide,reduced oxidation-reduction potential
